Experimental data taken from article PMC5298231, “The Malaria Parasite's Lactate Transporter PfFNT Is the Target of Antiplasmodial Compounds Identified in Whole Cell Phenotypic Screens” (PLoS Pathogens, 2017).
Like-named read-outs stand apart in the source and are kept apart here.

Legend:
[1] = ref [36]; cited from earlier work
[2] = system: erythrocytes infected with 3D7 trophozoites (extracellular medium); assay: LC-MS metabolite profiling, extracellular medium of parasitised erythrocyte suspensions; settings: 6 μM
3D7 parasites [3] = settings: cited from earlier work
PfFNT^Gly107Ser = molecular target: T1, PfFNT^Gly107Ser (Plasmodium falciparum, UniProt O77389, G107S); assay: PfFNT-mediated L-[14C]lactate uptake by Xenopus oocytes expressing PfFNT Gly107Ser; assay type: cell-based; settings: PfFNT Gly107Ser in Xenopus oocytes; pH 6.4, 27.5°C, 10 min; mean ± SEM, n = 4; read-out: IC50, inhibition of PfFNT-mediated L-[14C]lactate transport
T1 construct: expressed in transfected cells; host or cells: Xenopus laevis oocytes (cRNA microinjected, 30 ng)
T1 sequence (O77389 1-309 G107S): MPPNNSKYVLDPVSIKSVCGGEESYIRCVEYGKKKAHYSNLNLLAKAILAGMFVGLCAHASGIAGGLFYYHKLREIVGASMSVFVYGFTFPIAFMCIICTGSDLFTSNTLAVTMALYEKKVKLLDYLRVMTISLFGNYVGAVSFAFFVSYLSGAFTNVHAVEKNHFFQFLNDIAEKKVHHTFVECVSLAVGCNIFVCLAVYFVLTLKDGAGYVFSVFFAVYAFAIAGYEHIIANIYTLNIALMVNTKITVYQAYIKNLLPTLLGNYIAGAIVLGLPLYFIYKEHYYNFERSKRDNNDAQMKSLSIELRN
Procedure: The PfFNT-mediated uptake of L-[^14C]lactate by oocytes expressing native PfFNT (black symbols) or oocytes expressing PfFNT^Gly107Ser (white symbols) was measured in the presence of a range of different concentrations of MMV007839 (A) and MMV000972 (B). […] To enable a visual comparison between the native PfFNT and PfFNT^Gly107Ser datasets, only part of the concentration range used for the latter is shown in the main panels. The insets show the data obtained for PfFNT^Gly107Ser over the full concentration range tested. In all cases, the data are averaged from four independent experiments (using oocytes from different frogs) and are shown ± SEM. The uptake was measured at 27.5°C over 10 min at pH 6.4 using 2.7 μM L-[^14C]lactate and 600 μM unlabelled L-lactate.
The oocyte expression vectors containing PfFNT, PfENT1 and PfCRT were made previously. […] The uptake of radiolabelled substrates was measured 2–5 days post-injection at 27.5°C in ND96 buffer (containing 96 mM NaCl, 2 mM KCl, 1 mM MgCl2, 1.8 mM CaCl2, 10 mM MES and 10 mM Tris-base; pH-adjusted to the value specified in the relevant Figure legends). […] The oocytes were then transferred to separate wells of a 96-well plate, lysed with 10% SDS, and the radioactivity measured as described previously.

[4] = system: saponin-isolated 3D7 P. falciparum trophozoites; assay type: cell-based, Plasmodium falciparum; settings: 1 μM, within 10 min; mean ± SEM, n = 3
Text: (§1) Fig 6 The effect of MMV007839 on the volume of parasites and parasitised erythrocytes. […] The data are expressed as a percentage volume increase relative to the starting volume, which for isolated parasites (A) ranged from 35 fL to 46 fL in the individual experiments, and for intact infected erythrocytes (B) ranged from 73 fL to 79 fL. In both cases the data shown are the mean ± SEM from three independent experiments performed on different days. For each condition, the (pre-normalised) volume data for each time point greater than 0 was tested for statistical significance compared to the time zero data for that condition; **P < 0.01, ***P < 0.001.
(§2) The volume of saponin-isolated 3D7 trophozoites and of erythrocytes infected with 3D7 trophozoites was measured using a Beckman Coulter Multisizer 4 fitted with a 100 μm ‘aperture tube’. […] The electrolyte solution within the aperture tube was the same as the Experimental Saline Solution except that it lacked glucose. For experiments on infected erythrocytes, the infected cells were separated from uninfected erythrocytes using a Miltenyi Biotec VarioMACS Magnet and the cells were maintained at 37°C in bicarbonate-free RPMI supplemented with 25 mM HEPES, additional glucose (11 mM) and 0.2 mM hypoxanthine, and pH-adjusted to 7.40. For these measurements the electrolyte solution within the aperture tube differed only from this medium in that it was not supplemented with hypoxanthine or additional glucose. For each measurement of cell volume, approximately 20,000 pulses (each corresponding to the passage of a single cell through the aperture) were recorded. The median volume of the cells within each sample was determined by fitting a log Gaussian distribution curve to the population data.

[5] = system: erythrocytes infected with 3D7 trophozoites; assay type: cell-based, Plasmodium falciparum; settings: 1 μM, within 10 min; mean ± SEM, n = 3
Text: as §1, §2

3D7 parasites [6] = assay: Parasite viability after timed exposure and washout (parasitaemia on Day 3); settings: 6 μM; for Effect on parasite viability: parasitaemia three days later
Dd2 parent parasites = assay: Parasite proliferation assay, Dd2 parent; assay type: cell-based, Plasmodium falciparum; settings: Dd2 parent; mean ± SEM; read-out: IC50 value, growth inhibition
Procedure: Parasite proliferation was measured in 96-well plates using a fluorescent DNA-intercalating dye [45]. The assays were initiated with erythrocytes infected with predominantly ring-stage parasites, and the starting parasitaemia was 0.5–1% and the haematocrit was 1%.

Dd2 parental parasites = assay: L-[14C]lactate uptake by isolated Dd2 parental parasites; settings: read-out: IC50, inhibition of L-[14C]lactate uptake; Dd2 (parental) parasites; pH 6.1, 4°C, 20 s; mean ± SEM
non-injected oocytes = assay type: cell-based, Xenopus laevis; settings: full range of inhibitor concentrations

In the case of `COc1ccc2c(c1)OC(O)(C(F)(F)C(F)(F)F)CC2=O` (stereo not shown) [MMV007839], the “Toxicity in Malaria Box toxicity testing” value [1] is listed as “display toxicity in some assays”, the “Extracellular lactate level, treated vs untreated” value ([2]; not statistically significant) is listed as “decreased” and the “Extracellular pyruvate level, treated vs untreated” value ([2]; not statistically significant) is listed as “increased”. For the same molecule, the “Extracellular α-ketoglutarate level, treated vs untreated” value ([2]; not statistically significant) was “decreased”, the “Extracellular 3-phosphoglycerate level, treated vs untreated” value ([2]; statistically significant) was “increased” and the “Extracellular phosphoenolpyruvate level, treated vs untreated” value ([2]; statistically significant) was “increased”. The IC50 (3D7 parasites [3]; ref [1] Van Voorhis et al. 2016, read-out: IC50 for killing of 3D7 parasites) was 0.28 µM, the IC50 (3D7 parasites [3]; ref http://www.mmv.org/research-development/malaria-box-supporting-information, read-out: IC50 against 3D7 parasites, other groups) was 0.283 to 0.442 µM and the IC50 (PfFNT^Gly107Ser) was 1.3 ± 0.2 µM. For the same molecule, the “Volume increase of isolated parasites” value [4] was 5.1 ± 0.8 fL, the “Volume increase of isolated parasites relative to starting volume” value [4] was 13.1 ± 2.8% and the “Volume increase of erythrocytes infected with 3D7 trophozoites” value [5] was 5.4 ± 1.0 fL. The “Volume increase of erythrocytes infected with 3D7 trophozoites relative to starting volume” value [5] was 7.2 ± 1.3%, the “Effect on parasite viability” value (3D7 parasites [6]; 1 h exposure) was “did not significantly affect” and the “Effect on parasite viability” value (3D7 parasites [6]; 3 h exposure) was “did not significantly affect”. For the same molecule, the “Parasitaemia three days after exposure, of control levels” value (3D7 parasites [6]; 6 h exposure, mean ± SEM, n = 3) was 49 ± 7%, the IC50 (Dd2 parent parasites) was 0.14 ± 0.02 µM and the IC50 (Dd2 parental parasites) was 0.158 ± 0.042 µM. The “Effect on L-[14C]lactate transport into control (non-injected) oocytes” value (non-injected oocytes) was “no changes”.
